Like-named read-outs stand apart in the source and are kept apart here.
Key:
MYB mRNA = experiment: RT-qPCR splicing assay, MYB mRNA canonical (CJ) and alternative (AJ) junction; type: cell-based, human; settings: Homo sapiens; for AC50: MYB alternative junction mRNA, read-out: MYB AJ (increase in AJ mRNA, AC50)
How it was run: (§1)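 Junction-specific RT-qPCR read-out: CJ and AJ isoform levels, housekeeper-normalized (GAPDH/GUSB/PPIA), ΔΔCt vs DMSO, converted to RQ then % response. Cells: A673 (DMEM/10% FBS, adhered 24 h) or K562 (IMDM/10% FBS). Compound 11-pt 3-fold, top 10 uM, 24 h, 37 °C.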

SMN2 mRNA = experiment: RT-qPCR splicing assay, SMN2 mRNA; type: cell-based, human; settings: Homo sapiens, canonical junction qPCR panel, Table 4; read-out: SMN2 IC50 (decrease in CJ mRNA levels)
How it was run: as §1

MYB = experiment: HiBiT protein abundance assay, MYB (K562 HiBiT knock-in); type: cell-based, human; settings: HiBiT knock-in K562 cells, 24 hours, top dose 10 μM
How it was run: (§2)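 K562 HiBiT knock-in, 24 h, 37 °C, top 10 μM final, 3-fold ×10, DMSO ≤0.25%. Lytic HiBiT luminescence; PC = parental K562, NC = DMSO; 4PL IC50.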

HTT = experiment: HiBiT protein abundance assay, HTT (K562 HiBiT knock-in); type: cell-based, human; settings: HiBiT knock-in K562 cells, 24 hours, top dose 10 μM
How it was run: as §2

K562 cells = experiment: Cell Titer Glo 2.0 cell viability (toxicity) assay, K562; settings: 500 cells/well, 72 hours
[1] = MYB canonical junction mRNA, RT-qPCR, read-out: MYB CJ (decrease in CJ mRNA levels, IC50)
[2] = canonical junction qPCR panel, Table 4, read-out: MYB IC50 (decrease in CJ mRNA levels)

Row | Structure (SMILES) | AC50 (MYB mRNA; RT-qPCR) [µM] | IC50 (MYB mRNA; [1]) [µM] | IC50 (MYB mRNA; [2]) [µM] | IC50 (SMN2 mRNA) [µM] | IC50 (MYB) [µM] | IC50 (HTT) [µM] | Effect of Exemplary Compounds on Cell Viability, K562 (K562 cells)
1 | Cn1cc2cc(-c3ccc4nc([C@@H]5CCNC6(CC6)C5)ccc4n3)c(O)cc2n1 (single isomer, unassigned) [Compound 495] | < 0.1 | < 0.1 | < 0.1 | < 0.1 | < 0.1 | < 0.1 | B (B represents 100-1000 nM)
2 | Cn1cc2cc(-c3ccc4nc([C@H]5CCNC6(CC6)C5)ccc4n3)c(O)cc2n1 (single isomer, unassigned) [Compound 496] | < 0.1 | 0.1 to 1 | 0.1 to 1 | < 0.1 | < 0.1 | < 0.1 | B (B represents 100-1000 nM)
3 | Cc1nc2cc(O)c(-c3ccc4nc([C@H]5CCNC6(CC6)C5)ccc4n3)cc2o1 (single isomer, unassigned) [Compound 497] | < 0.1 | < 0.1 | < 0.1 | < 0.1 | < 0.1 | < 0.1 | A (A represents <100 nM)
4 | Cc1nc2cc(O)c(-c3ccc4nc([C@@H]5CCNC6(CC6)C5)ccc4n3)cc2o1 (single isomer, unassigned) [Compound 498] | < 0.1 | 0.1 to 1 | 0.1 to 1 | < 0.1 | < 0.1 | < 0.1 | B (B represents 100-1000 nM)
5 | CN[C@@H]1CCN(c2ccc3nc(-c4cn5cc(C)nc5c(C)c4O)ncc3n2)C1 (single isomer, unassigned) [Compound 504] | 0.1 to 1 | 0.1 to 1 | 0.1 to 1 | < 0.1 | 0.1 to 1 | 0.1 to 1 | B (B represents 100-1000 nM)
6 | CNC(=O)c1nc(-c2cc3cn(C)nc3c(C)c2O)nc2ccc(N3CCN[C@@H](C)C3)cc12 (single isomer, unassigned) [Compound 512] | < 0.1 | < 0.1 | < 0.1 | < 0.1 | < 0.1 | 0.1 to 1 | A (A represents <100 nM)
7 | CN[C@@H]1CCN(c2ccc3nc(-c4cc5cn(C)nc5c(C)c4O)ncc3c2)C1 (single isomer, unassigned) [Compound 521] | < 0.1 | < 0.1 | < 0.1 | < 0.1 | < 0.1 | < 0.1 | A (A represents <100 nM)
8 | CNC(=O)c1nc(-c2cc3cn(C)nc3c(C)c2O)nc2ccc(N3C[C@@H](C)N[C@H](C)C3)cc12 (single isomer, unassigned) [Compound 653] | < 0.1 | < 0.1 | < 0.1 | < 0.1 | < 0.1 | < 0.1 | A (A represents <100 nM)
9 | Cc1c(O)c(-c2ncc3cc(N4C[C@@H](C)N[C@H](C)C4)ccc3n2)cc2cn(C)nc12 (single isomer, unassigned) [Compound 661] | 0.1 to 1 | 0.1 to 1 | 0.1 to 1 | < 0.1 | < 0.1 | 0.1 to 1 | B (B represents 100-1000 nM)
10 | CNC(=O)c1nc(-c2cc3cn(C)nc3c(F)c2O)nc2ccc(N3C[C@@H](C)N[C@H](C)C3)cc12 (single isomer, unassigned) [Compound 668] | < 0.1 | < 0.1 | < 0.1 | < 0.1 | < 0.1 | 0.1 to 1 | A (A represents <100 nM)
11 | CNC(=O)c1nc(-c2cc3cn(C)nc3c(F)c2O)nc2ccc(N3C[C@H](C)N[C@@H](C)C3)cc12 (single isomer, unassigned) [Compound 669] | < 0.1 | < 0.1 | < 0.1 | < 0.1 | < 0.1 | 0.1 to 1 | A (A represents <100 nM)
12 | CNC(=O)c1nc(-c2cc3cn(C)nc3cc2O)nc2ccc(N3C[C@H](C)N[C@@H](C)C3)cc12 (single isomer, unassigned) [Compound 676] | < 0.1 | < 0.1 | < 0.1 | < 0.1 | < 0.1 | 0.1 to 1 | A (A represents <100 nM)
13 | CNC(=O)c1nc(-c2cc3cn(C)nc3cc2O)nc2ccc(N3C[C@@H](C)N[C@H](C)C3)cc12 (single isomer, unassigned) [Compound 677] | < 0.1 | < 0.1 | < 0.1 | < 0.1 | < 0.1 | 0.1 to 1 | B (B represents 100-1000 nM)
14 | Cc1cn2cc(-c3ccc4cc(N5C[C@H](C)N[C@@H](C)C5)cc(F)c4n3)cc(F)c2n1 (single isomer, unassigned) [Compound 705, 2,2,2-trifluoroacetate] | 0.1 to 1 | < 0.1 | < 0.1 | – | < 0.1 | 0.1 to 1 | A (A represents <100 nM)
15 | Cn1cc2cc(-c3ncc4nc(C5CCNCC5)ccc4n3)c(O)c(F)c2n1 [Compound 155] | < 0.1 | < 0.1 | < 0.1 | < 0.1 | < 0.1 | < 0.1 | A (A represents <100 nM)
16 | Cc1nc2cc(O)c(-c3ccc4nc(N5CCNC(C(C)(C)C)C5)ccc4n3)cc2o1 (stereo not shown) [Compound 492] | 0.1 to 1 | 1 to 10 | 1 to 10 | < 0.1 | 0.1 to 1 | 0.1 to 1 | C (C represents 1000-9999 nM)
17 | Cc1nc2cc(O)c(-c3ccc4nc(N5CC[C@@H](N(C)C(C)(C)C)C5)ccc4n3)cc2o1 [Compound 493] | < 0.1 | < 0.1 | < 0.1 | < 0.1 | < 0.1 | < 0.1 | A (A represents <100 nM)
18 | CNC(=O)c1nc(-c2cc3cn(C)nc3c(F)c2O)nc2ccc(N3CCNCC3)cc12 [Compound 506, 2-(7-fluoro-6-hydroxy-2-methylindazol-5-yl)-N-methyl-6-(piperazin-1-yl)quinazoline-4-carboxamide] | < 0.1 | < 0.1 | < 0.1 | < 0.1 | < 0.1 | 0.1 to 1 | –
19 | CNc1nc(-c2cc3cn(C)nc3c(C)c2O)nc2ccc(N3CCNCC3)cc12 [Compound 508, 2,7-dimethyl-5-[4-(methylamino)-6-(piperazin-1-yl)quinazolin-2-yl]indazol-6-ol] | 1 to 10 | 1 to 10 | 1 to 10 | 0.1 to 1 | 1 to 10 | > 10 | –
20 | Cc1c(O)c(-c2nc(N(C)C)c3cc(N4CCNCC4)ccc3n2)cc2cn(C)nc12 [Compound 509, 5-[4-(dimethylamino)-6-(piperazin-1-yl)quinazolin-2-yl]-2,7-dimethylindazol-6-ol] | > 10 | > 10 | > 10 | 0.1 to 1 | 1 to 10 | > 10 | –
